The source of these data is patent publication US20130040914A1, “PRODRUGS OF AN HIV REVERSE TRANSCRIPTASE INHIBITOR” (priority 2010, published 2013).

Data set [1] is described as follows: Water solubility at room temperature (excess solid stirred in deionized water, HPLC). The following applies: thermodynamic from solid; for solubility at 24 h: deionized water.
Procedure: A stir bar was then placed in the tube and the tube placed on a multi-position stirrer plate. […] The solubility of each compound was determined via HPLC, wherein a portion of the supernatant was removed from the tube, diluted with ACN:water (50:50 by volume) as necessary to achieve a suitable concentration for analysis, and then analyzed by HPLC against a standard (=a solution of the K salt of Example 1 in ACN:water 50:50 by volume). One determination was made for each compound.
HPLC: column=Agilent Zorbax Eclipse (4.6×50 mm, 1.8 micron); mobile phase=0.1% H3PO4:ACN; gradient=90% to 10% H3PO4; flow rate=1.5 mL/minute; column temperature=45° C.; injection volume=25 μL; UV sampling with detection wavelength=210 nm; run time=15 minutes.
Data set [2] in a line: Aqueous solubility (background statement). Format: physicochemical. The following applies: qualitative statement in Background.
The nature of data set [3]: Oral bioavailability in pharmacokinetic studies in animals. Format: in vivo. The following applies: qualitative.
Data set [4] concerns the target HIV reverse transcriptase (Human immunodeficiency virus type 1 group M subtype B, UniProt P03366). The following applies: qualitative statement in Background; cited from earlier work.

In brackets after ≈: the same amount, converted by molar mass.

By solubility is commonly meant how much of the substance goes into solution per volume. A higher solubility goes with a readily soluble substance. `N#Cc1cc(Cl)cc(Oc2c(C(F)(F)F)ccn(Cc3nn(COP(=O)([O-])O)c4ncccc34)c2=O)c1.O.[K+]` [Example 1, Potassium (3-{[3-(3-chloro-5-cyanophenoxy)-2-oxo-4-(trifluoromethyl)pyridin-1(2H)-yl]methyl}-1H-pyrazolo[3,4-b]pyridin-1-yl)methyl hydrogen phosphate monohydrate] yielded a solubility at 4 h in data set [1] of 12000 µg/mL.
As for `CN(CCN)C(=O)n1nc(Cn2ccc(C(F)(F)F)c(Oc3cc(Cl)cc(C#N)c3)c2=O)c2cccnc21.O=S(=O)(O)c1ccccc1` [Example 9, N-(2-Aminoethyl)-3-{[3-(3-chloro-5-cyanophenoxy)-2-oxo-4-(trifluoromethyl)pyridin-1(2H)-yl]methyl}-N-methyl-1H-pyrazolo[3,4-b]pyridine-1-carboxamide benzenesulfonate], the solubility at 24 h in data set [1] came out at 1100 µg/mL.
Consider `N#Cc1cc(Cl)cc(Oc2c(C(F)(F)F)ccn(Cc3n[nH]c4ncccc34)c2=O)c1` [Compound A, 3-chloro-5-{[2-oxo-1-(1H-pyrazolo[3,4-b]pyridin-3-ylmethyl)-4-(trifluoromethyl)-1,2-dihydropyridin-3-yl]oxy}benzonitrile], for which, in data set [2], the aqueous solubility entry was “relatively low”. In addition, the oral bioavailability result in data set [3] is reported as “relatively low”. Besides, the “non-nucleoside reverse transcriptase inhibition” value in data set [4] is “potent”. This compound also gave a solubility at 24 h in data set [1] of 0.2 µg/mL (≈ 0.449 µM).
`N#Cc1cc(Cl)cc(Oc2c(Cl)ccn(Cc3n[nH]c4ncccc34)c2=O)c1` [Compound B, 3-chloro-5-{[4-chloro-2-oxo-1-(1H-pyrazolo[3,4-b]pyridin-3-ylmethyl)-1,2-dihydropyridin-3-yl]oxy}benzonitrile]: the aqueous solubility entry in data set [2] is “relatively low”. Besides, the “non-nucleoside reverse transcriptase inhibition” value in data set [4] is “potent”.
